Laboratory results from patent US6274715A, “Tricyclic erythromycin derivatives” (priority 1997, dated 2001).
Values after ≈ are worked out from the molar mass of the structure shown.

Legend:
Type in all cases: cell-based
[1] = tested on: STAPHYLOCOCCUS AUREUS CMX 642A; test: In vitro antibacterial activity, MIC, BHI agar dilution; conditions: S. aureus CMX 642A, unit assumed
[2] = tested on: KLEBSIELLA PNEUMONIAE ATCC 8045; test: as above; conditions: K. pneumoniae ATCC 8045, unit assumed
[3] = tested on: PSEUDOMONAS AERUGINOSA BMH10; test: as above; conditions: P. aeruginosa BMH10, unit assumed
ESCHERICHIA COLI DC-2 = test: as above; conditions: E. coli DC-2, unit assumed
[4] = tested on: PSEUDOMONAS AERUGINOSA 5007; test: as above; conditions: P. aeruginosa 5007, unit assumed
ESCHERICHIA COLI KNK 437 = conditions: E. coli KNK 437; BHI agar; unit assumed
[5] = tested on: STREPTOCOCCUS PYOGENES PIU 2548; test: In vitro antibacterial activity, MIC, BHI agar dilution; conditions: S. pyogenes PIU 2548, unit assumed
[6] = tested on: STAPHYLOCOCCUS EPIDERMIDIS 3519; conditions: S. epidermidis 3519; BHI agar; unit assumed
[7] = tested on: STREPTOCOCCUS PYOGENES EES61; test: In vitro antibacterial activity, MIC, BHI agar dilution; conditions: S. pyogenes EES61, unit assumed
[8] = tested on: STAPHYLOCOCCUS AUREUS A-5278; test: as above; conditions: S. aureus A-5278, unit assumed
[9] = tested on: PSEUDOMONAS AERUGINOSA DPHD-5263; test: as above; conditions: P. aeruginosa DPHD-5263, unit assumed
[10] = tested on: PSEUDOMONAS AERUGINOSA K799/61; test: as above; conditions: P. aeruginosa K799/61, unit assumed
[11] = tested on: STAPHYLOCOCCUS AUREUS CMX 553; test: as above; conditions: S. aureus CMX 553, unit assumed
[12] = tested on: STAPHYLOCOCCUS AUREUS NCTC10649M; test: as above; conditions: S. aureus NCTC10649M, unit assumed
[13] = tested on: PROVIDENCIA STUARTII CMX 640; conditions: P. stuartii CMX 640; BHI agar; unit assumed
[14] = tested on: STREPTOCOCCUS BOVIS A-5169; test: In vitro antibacterial activity, MIC, BHI agar dilution; conditions: S. bovis A-5169, unit assumed
[15] = tested on: STAPHYLOCOCCUS AUREUS A5177; test: as above; conditions: S. aureus A5177, unit assumed
ESCHERICHIA COLI SS = test: as above; conditions: E. coli SS, unit assumed
CANDIDA ALBICANS CCH 442 = test: as above; conditions: C. albicans CCH 442, unit assumed
[16] = tested on: STREPTOCOCCUS PYOGENES 930; test: as above; conditions: S. pyogenes 930, unit assumed
[17] = tested on: MYCOBACTERIUM SMEGMATIS ATCC 114; test: as above; conditions: M. smegmatis ATCC 114, unit assumed
ESCHERICHIA COLI JUHL = conditions: E. coli JUHL; BHI agar; unit assumed
[18] = tested on: PSEUDOMONAS AERUGINOSA DPHD-2862; test: In vitro antibacterial activity, MIC, BHI agar dilution; conditions: P. aeruginosa DPHD-2862, unit assumed
EN[…] ATCC 8043 = test: as above; conditions: E. faecium ATCC 8043, unit assumed
How it was run: (§1)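 Agar dilution in BHI: plates inoculated with 1:100 dilutions of organisms (1:10 for Micrococcus and Streptococcus), incubated 20-24 h at 35-37° C, then inspected for the lowest inhibitory concentration against a drug-free growth control.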

STR[…] 508 = test: as above; conditions: S. agalactiae CMX 508, unit assumed
How it was run: as §1

M[…] ATCC 4698 = test: as above; conditions: M. luteus ATCC 4698, unit assumed
How it was run: as §1

M[…] ATCC 9341 = test: as above; conditions: M. luteus ATCC 9341, unit assumed
How it was run: as §1

[19] = tested on: PSEUDOMONAS AERUGINOSA K799/WT; test: as above; conditions: P. aeruginosa K799/WT, unit assumed
[20] = tested on: ENTEROBACTER AEROGENES ATCC 13048; test: as above; conditions: E. aerogenes ATCC 13048, unit assumed
PSEUDOMONAS CEPACIA 296I = test: as above; conditions: P. cepacia 296I, unit assumed
[21] = tested on: STAPHYLOCOCCUS AUREUS 1775; test: as above; conditions: S. aureus 1775, unit assumed
[22] = tested on: STAPHYLOCOCCUS AUREUS ATCC 6538P; test: as above; conditions: S. aureus ATCC 6538P, 35-37° C., 20 to 24 hours, unit assumed
ESCHERICHIA COLI H560 = test: as above; conditions: E. coli H560, unit assumed

Compound | MIC [1] | MIC [2] | MIC [3] | MIC (ESCHERICHIA COLI DC-2) | MIC [4] | MIC (ESCHERICHIA COLI KNK 437) | MIC [5] | MIC [6] | MIC [7] | MIC [8] | MIC [9] | MIC [10] | MIC [11] | MIC [12] | MIC [13] | MIC [14] | MIC [15] | MIC (ESCHERICHIA COLI SS) | MIC (CANDIDA ALBICANS CCH 442) | MIC [16] | further results
CC[C@H]1OC(=O)[C@H](C)C(=O)[C@H](C)[C@@H](O[C@@H]2O[C@H](C)C[C@H](N(C)C)[C@H]2O)[C@](C)(OC)C[C@@H](C)C2=NC[C@H](Cc3ccc(I)cc3)N3C(=O)O[C@@]1(C)[C@H]3[C@H]2C [Example 70] | 0.2 µg/mL (≈ 0.234 µM) | 100 µg/mL (≈ 117 µM) | 100 µg/mL (≈ 117 µM) | 50 µg/mL (≈ 58.6 µM) | 100 µg/mL (≈ 117 µM) | > 100 µg/mL | 0.39 µg/mL (≈ 0.457 µM) | 0.2 µg/mL (≈ 0.234 µM) | 0.02 µg/mL (≈ 0.0234 µM) | 100 µg/mL (≈ 117 µM) | 100 µg/mL (≈ 117 µM) | 0.78 µg/mL (≈ 0.914 µM) | 0.2 µg/mL (≈ 0.234 µM) | 0.2 µg/mL (≈ 0.234 µM) | > 100 µg/mL | 0.01 µg/mL (≈ 0.0117 µM) | 0.1 µg/mL (≈ 0.117 µM) | 1.56 µg/mL (≈ 1.83 µM) | 100 µg/mL (≈ 117 µM) | 50 µg/mL (≈ 58.6 µM) | MIC [17]: 0.2 µg/mL (≈ 0.234 µM); MIC (ESCHERICHIA COLI JUHL): 100 µg/mL (≈ 117 µM); MIC [18]: 100 µg/mL (≈ 117 µM); MIC (EN[…] ATCC 8043): 0.1 µg/mL (≈ 0.117 µM); MIC (STR[…] 508): 0.05 µg/mL (≈ 0.0586 µM); MIC (M[…] ATCC 4698): 0.2 µg/mL (≈ 0.234 µM); MIC (M[…] ATCC 9341): 0.1 µg/mL (≈ 0.117 µM); MIC [19]: > 100 µg/mL; MIC [20]: 100 µg/mL (≈ 117 µM); MIC (PSEUDOMONAS CEPACIA 296I): 50 µg/mL (≈ 58.6 µM); MIC [21]: 100 µg/mL (≈ 117 µM); MIC [22]: 0.1 µg/mL (≈ 0.117 µM); MIC (ESCHERICHIA COLI H560): 50 µg/mL (≈ 58.6 µM)
CCC1OC(=O)C(C)C(=O)C(C)C(OC2OC(C)CC(N(C)C)C2O)C(C)(OC)CC(C)C2=NCC(COCc3ccccc3F)N3C(=O)OC1(C)C3C2C (stereo not drawn) [Example 73] | 0.1 µg/mL (≈ 0.129 µM) | 100 µg/mL (≈ 129 µM) | 100 µg/mL (≈ 129 µM) | 25 µg/mL (≈ 32.2 µM) | > 100 µg/mL | 50 µg/mL (≈ 64.4 µM) | 0.39 µg/mL (≈ 0.503 µM) | 0.1 µg/mL (≈ 0.129 µM) | ≤ 0.005 µg/mL | > 100 µg/mL | 100 µg/mL (≈ 129 µM) | 0.39 µg/mL (≈ 0.503 µM) | 0.1 µg/mL (≈ 0.129 µM) | 0.1 µg/mL (≈ 0.129 µM) | > 100 µg/mL | 0.01 µg/mL (≈ 0.0129 µM) | 0.1 µg/mL (≈ 0.129 µM) | 0.2 µg/mL (≈ 0.258 µM) | > 100 µg/mL | 100 µg/mL (≈ 129 µM) | MIC [17]: 0.39 µg/mL (≈ 0.503 µM); MIC (ESCHERICHIA COLI JUHL): 50 µg/mL (≈ 64.4 µM); MIC [18]: 100 µg/mL (≈ 129 µM); MIC (EN[…] ATCC 8043): 0.05 µg/mL (≈ 0.0644 µM); MIC (STR[…] 508): ≤ 0.005 µg/mL; MIC (M[…] ATCC 4698): 0.1 µg/mL (≈ 0.129 µM); MIC (M[…] ATCC 9341): 0.01 µg/mL (≈ 0.0129 µM); MIC [19]: > 100 µg/mL; MIC [20]: 100 µg/mL (≈ 129 µM); MIC (PSEUDOMONAS CEPACIA 296I): 25 µg/mL (≈ 32.2 µM); MIC [21]: > 100 µg/mL; MIC [22]: 0.1 µg/mL (≈ 0.129 µM); MIC (ESCHERICHIA COLI H560): 12.5 µg/mL (≈ 16.1 µM)
CCC1OC(=O)C(C)C(=O)C(C)C(OC2OC(C)CC(N(C)C)C2O)C(C)(OC)CC(C)C2=NC(COCc3ccc(N(C)C)cc3)CN3C(=O)OC1(C)C3C2C (stereo not drawn) [Example 76] | 0.39 µg/mL (≈ 0.487 µM) | > 100 µg/mL | > 100 µg/mL | > 100 µg/mL | > 100 µg/mL | > 100 µg/mL | 0.39 µg/mL (≈ 0.487 µM) | 0.39 µg/mL (≈ 0.487 µM) | 0.1 µg/mL (≈ 0.125 µM) | > 100 µg/mL | > 100 µg/mL | 1.56 µg/mL (≈ 1.95 µM) | 0.39 µg/mL (≈ 0.487 µM) | 0.2 µg/mL (≈ 0.25 µM) | > 100 µg/mL | 0.01 µg/mL (≈ 0.0125 µM) | 0.39 µg/mL (≈ 0.487 µM) | 0.39 µg/mL (≈ 0.487 µM) | > 100 µg/mL | > 100 µg/mL | MIC [17]: 6.2 µg/mL (≈ 7.74 µM); MIC (ESCHERICHIA COLI JUHL): > 100 µg/mL; MIC [18]: > 100 µg/mL; MIC (EN[…] ATCC 8043): 0.1 µg/mL (≈ 0.125 µM); MIC (STR[…] 508): 0.1 µg/mL (≈ 0.125 µM); MIC (M[…] ATCC 4698): 0.39 µg/mL (≈ 0.487 µM); MIC (M[…] ATCC 9341): 0.2 µg/mL (≈ 0.25 µM); MIC [19]: > 100 µg/mL; MIC [20]: > 100 µg/mL; MIC (PSEUDOMONAS CEPACIA 296I): > 100 µg/mL; MIC [21]: > 100 µg/mL; MIC [22]: 0.39 µg/mL (≈ 0.487 µM); MIC (ESCHERICHIA COLI H560): 50 µg/mL (≈ 62.4 µM)
CC[C@H]1OC(=O)[C@H](C)C(=O)[C@H](C)[C@@H](O[C@@H]2O[C@H](C)C[C@H](N(C)C)[C@H]2O)[C@](C)(OC)C[C@@H](C)C2=N[C@@H](COCc3ccccc3)CN3C(=O)O[C@@]1(C)[C@H]3[C@H]2C [Example 89] | 0.39 µg/mL (≈ 0.515 µM) | > 100 µg/mL | > 100 µg/mL | 100 µg/mL (≈ 132 µM) | > 100 µg/mL | 100 µg/mL (≈ 132 µM) | 0.2 µg/mL (≈ 0.264 µM) | 0.39 µg/mL (≈ 0.515 µM) | 0.02 µg/mL (≈ 0.0264 µM) | > 100 µg/mL | 100 µg/mL (≈ 132 µM) | 1.56 µg/mL (≈ 2.06 µM) | 0.39 µg/mL (≈ 0.515 µM) | 0.39 µg/mL (≈ 0.515 µM) | > 100 µg/mL | 0.01 µg/mL (≈ 0.0132 µM) | 0.39 µg/mL (≈ 0.515 µM) | 0.39 µg/mL (≈ 0.515 µM) | > 100 µg/mL | 100 µg/mL (≈ 132 µM) | MIC [17]: 0.78 µg/mL (≈ 1.03 µM); MIC (ESCHERICHIA COLI JUHL): 100 µg/mL (≈ 132 µM); MIC [18]: > 100 µg/mL; MIC (EN[…] ATCC 8043): 0.1 µg/mL (≈ 0.132 µM); MIC (STR[…] 508): 0.01 µg/mL (≈ 0.0132 µM); MIC (M[…] ATCC 4698): 0.39 µg/mL (≈ 0.515 µM); MIC (M[…] ATCC 9341): 0.05 µg/mL (≈ 0.066 µM); MIC [19]: > 100 µg/mL; MIC [20]: > 100 µg/mL; MIC (PSEUDOMONAS CEPACIA 296I): 25 µg/mL (≈ 33 µM); MIC [21]: > 100 µg/mL; MIC [22]: 0.39 µg/mL (≈ 0.515 µM); MIC (ESCHERICHIA COLI H560): 25 µg/mL (≈ 33 µM)
